Measurements as given in patent US10206908B2, “3-(1H-pyrrolo[3,2-C]pyridin-2-YL)-1H-pyrazolo[3,4-C]pyridines and therapeutic uses thereof” (Samumed, LLC, priority 2015, dated 2019).

Experiments:
Assay type in all cases: cell-based
IL-6 (THP-1 cells) = experiment: IL-6 inhibition in LPS-stimulated THP-1 monocytes (HTRF); conditions: Homo sapiens; for inhibition at 10 µM: THP-1, read-out: percent inhibition at 10 μM; for EC50: IL-6, THP-1 cells, LPS 500 ng/mL, 22 hours
Experimental: Compound Screening: THP-1 cells were cultured in basal media with 1% FBS for 24 hours before the start of the assay. […] THP-1 cells were plated at 5000 cells/well in the 384-well plates and incubated at 37° C. for 2 h. 500 ng/mL of LPS was added after 2 hours and cells were incubated for another 22 hours at 37° C. Plates were spun in a centrifuge for 1 minute at […] and a mixture of anti-IL6 XL665, and anti-IL6 Cryptate diluted in reconstitution buffer (Cisbio Inc.) was added to each well. Following incubation for 3 hrs at room temperature, Homogeneous Time-Resolved Fluorescence (HTRF) was measured using the Envision (Perkin Elmer) at 665 nm and […]. The ratio of fluorescence at 665 nm to 620 nm was used as a readout for IL6 quantification. All samples were processed in duplicate. Readings were normalized to DMSO treated cells and normalized activities were utilized for EC50 calculations using the dose-response log (inhibitor) vs. response-variable slope (four parameters) nonlinear regression feature available in GraphPad Prism 5.0 (or Dotmatics).

[1] = test system: primary human fibroblasts derived from IPF patients (LL29 cells) treated with TGF-β1; experiment: Inhibition of the fibrotic process: αSMA staining in TGF-β1 treated LL29 fibroblasts; conditions: Fibroblast; for EC50: 96 h, % αSMA positive LL29 cells, TGF-β1 20 ng/mL, 4 days; for inhibition at 10 µM: read-out: percent inhibition at 10 μM
Experimental: Representative compounds were screened using primary human fibroblasts (derived from IPF patients) treated with TGF-β1 to determine their ability to inhibit the fibrotic process.
LL29 cells are plated at 1,500 cells/well in 80 μL/well F12 medium supplemented with 1% Fetal Bovine Serum. […] Wells treated with TGF-β1 and containing DMSO were used as controls. […] Following incubation for 4 days, SYTOX green nucleic acid stain (Life Technologies [Thermo Fisher Scientific]) was added to the wells at a final concentration of 1 μM and incubated at room temperature for 30 min.

[2] = test system: primary human mesenchymal stem cells (hMSCs); experiment: Induction of chondrogenesis in hMSCs (chondrogenic nodules, Rhodamine B/Nile Red); conditions: 6 days; for EC50: concentration required to induce 50% levels of chondrogenesis vs TGF-β3, read-out: Conc (nM) of 50% TGF-β3 activity; for Emax: relative to TGF-β3 (10 ng/mL) positive control, read-out: Max. Activity as % TGF-β3 activity
Source text: Representative compounds were screened using primary human mesenchymal stem cells (hMSCs) to determine their ability to induce chondrogenesis (process by which cartilage is developed).
Human Mesenchymal Stem Cell Culture: Primary human mesenchymal stem cells (hMSCs) were purchased from Lonza (Walkersville, Md.) and expanded in Mesenchymal Stem Cell Growth Media (Lonza). Cells between passage 3 and 6 were used for the experiments.
Number of nodules in each well was normalized to the average of 3 DMSO treated wells on the same plate using Excel (Microsoft Inc.). The normalized averages (fold change over DMSO) of 3 replicate wells for each compound concentration were calculated. Due to solubility limitations of some of the compounds, curve fitting was incomplete leading to inaccurate EC50 determinations.
Using TGF-β3 as a positive control, the concentration of representative compounds required to induce 50% levels of chondrogenesis is reported. In addition, the maximum activity of each compound and the respective dose that each compound reached maximum chondrogenesis activity is reported.

[3] = test system: Wnt activity (Sp5-Luc reporter, SW480 colon carcinoma cells); experiment: Screening assay for Wnt activity: Sp5-Luc reporter gene assay in SW480 colon carcinoma cells; conditions: Homo sapiens; for inhibition at 10 µM: SW480, read-out: percent inhibition at 10 μM; for EC50: Sp5-Luc reporter, SW480 cells, overnight incubation
Source text: The screening assay for Wnt activity is described as follows. Reporter cell lines can be generated by stably transducing cancer cell lines (e.g., colon cancer) or primary cells (e.g., IEC-6 intestinal cells) with a lentiviral construct that includes a Wnt-responsive promoter driving expression of the firefly luciferase gene.
SW480 colon carcinoma cells were transduced with a lentiviral vector expressing luciferase with a human Sp5 promoter consisting of a sequence of eight TCF/LEF binding sites. SW480 cells stably expressing the Sp5-Luc reporter gene and a hygromycin resistance gene were selected by treatment with 150 μg/mL of hygromycin for 7 days. These stably transduced SW480 cells were expanded in cell culture and used for all further screening activities. […] For Sp5-Luc reporter gene assays, the cells were plated at 4,000 cells/well in 384-well plates with medium containing 1% fetal bovine serum and incubated overnight at 37° C. and 5% CO2. Following incubation, 20 μl of BrightGlo luminescence reagent (Promega) was added to each well of the 384-well assay plates. The plates were placed on an orbital shaker for 2 min and then luminescence was quantified using the Envision (Perkin Elmer) plate reader. Readings were normalized to DMSO only treated cells, and normalized activities were utilized for EC50 calculations using the dose-response log (inhibitor) vs. response-variable slope (four parameters) nonlinear regression feature available in GraphPad Prism 5.0 (or Dotmatics).

SW480 colon cancer cells = experiment: Cell viability assay (CellTiter-Blue) in SW480 colon cancer cells; conditions: Homo sapiens; for EC50: 96 h, SW480 cell viability, four days; for inhibition at 10 µM: SW480, read-out: percent inhibition at 10 μM
Experimental: Representative compounds were screened using the following assay procedure to assess the effect on cell viability as described below.
Approximately 2×10^3 SW480 colon cancer cells were seeded into each well and allowed to incubate in the presence or absence of compound for four days at 37° C./5% CO2. Eight replicates of DMSO-treated cells served as controls and cells treated with compound were performed in duplicate.
After incubation, 20 μL of CellTiter-Blue (Promega) was added to each well allowed to incubate for approximately 3 hours. This reagent was a buffered solution which contains resazurin, metabolically active cells were able to reduce rezarurin (blue) into resorufin (pink) which was highly fluorescent. This measured fluorescence was used as a readout for cell viability.

| SMILES | inhibition at 10 µM (IL-6 (THP-1 cells)) [%] | EC50 (IL-6 (THP-1 cells)) [nM] | EC50 [1] [nM] | inhibition at 10 µM [1] [%] | EC50 [2] [nM] | Emax [2] [%] | inhibition at 10 µM [3] [%] | EC50 [3] [nM] | EC50 (SW480 colon cancer cells) [nM] | inhibition at 10 µM (SW480 colon cancer cells) [%] |
| --- | --- | --- | --- | --- | --- | --- | --- | --- | --- | --- |
| CC(C)C(=O)Nc1cncc(-c2cc3c(-c4cc5c(-c6cc(F)cc(CNS(C)(=O)=O)c6)nccc5[nH]4)n[nH]c3cn2)c1 [Compound 485, N-(5-(3-(4-(3-Fluoro-5-(methylsulfonamidomethyl)phenyl)-1H-pyrrolo[3,2-c]pyridin-2-yl)-1H-pyrazolo[3,4-c]pyridin-5-yl)pyridin-3-yl)isobutyramide] | 47.8 | > 10000 | > 10000 | 0 | 30 | 80 | 43.9 | > 10000 | > 10000 | 10.5 |
| CCCCC(=O)Nc1cncc(-c2cc3c(-c4cc5cnccc5[nH]4)n[nH]c3cn2)c1 [Compound 271, N-(5-(3-(1H-Pyrrolo[3,2-c]pyridin-2-yl)-1H-pyrazolo[3,4-c]pyridin-5-yl)pyridin-3-yl)pentanamide] |  | 4610 | 4690 |  |  | 50 |  | 3880 | > 10000 | 26.2 |
| CC(C)CC(=O)Nc1cncc(-c2cc3c(-c4cc5c(-c6cccs6)nccc5[nH]4)n[nH]c3cn2)c1 [Compound 338, 3-Methyl-N-(5-(3-(4-(thiophen-2-yl)-1H-pyrrolo[3,2-c]pyridin-2-yl)-1H-pyrazolo[3,4-c]pyridin-5-yl)pyridin-3-yl)butanamide] |  | 449 | 155 |  | 10 | 81 |  | 572 | 440 |  |
| CC(C)C(=O)Nc1cncc(-c2cc3c(-c4cc5cnccc5[nH]4)n[nH]c3cn2)c1 [Compound 261, N-(5-(3-(1H-Pyrrolo[3,2-c]pyridin-2-yl)-1H-pyrazolo[3,4-c]pyridin-5-yl)pyridin-3-yl)isobutyramide] |  | 623 | 472 |  | 30 | 61 |  | 399 | 2250 |  |
| c1cc(-c2cc3c(-c4cc5c(-c6ccncc6)nccc5[nH]4)n[nH]c3cn2)ccn1 [Compound 130, 5-(Pyridin-4-yl)-3-(4-(pyridin-4-yl)-1H-pyrrolo[3,2-c]pyridin-2-yl)-1H-pyrazolo[3,4-c]pyridine] | 0 | > 10000 | 96 |  |  |  |  | 418 | > 10000 | 36.6 |
| c1cc2[nH]c(-c3n[nH]c4cnc(-c5cncc(CN6CCCC6)c5)cc34)cc2c(N2CCCCC2)n1 [Compound 182, 3-(4-(Piperidin-1-yl)-1H-pyrrolo[3,2-c]pyridin-2-yl)-5-(5-(pyrrolidin-1-ylmethyl)pyridin-3-yl)-1H-pyrazolo[3,4-c]pyridine] | 0 | > 10000 | > 10000 | 0 |  |  | 12.7 | > 10000 | > 10000 | 13 |
| CN1CCN(c2nccc3[nH]c(-c4n[nH]c5cnc(-c6cncc(NC(=O)CC7CCNCC7)c6)cc45)cc23)CC1 [Compound 641, N-(5-(3-(4-(4-Methylpiperazin-1-yl)-1H-pyrrolo[3,2-c]pyridin-2-yl)-1H-pyrazolo[3,4-c]pyridin-5-yl)pyridin-3-yl)-2-(piperidin-4-yl)acetamide] | 14.4 | > 10000 | 5120 |  |  |  | 7.9 | > 10000 | > 10000 | 4.4 |
| O=C(Nc1cncc(-c2cc3c(-c4cc5c(-c6cccc(F)c6)nccc5[nH]4)n[nH]c3cn2)c1)C1CCCCC1 [Compound 23, N-(5-(3-(4-(3-Fluorophenyl)-1H-pyrrolo[3,2-c]pyridin-2-yl)-1H-pyrazolo[3,4-c]pyridin-5-yl)pyridin-3-yl)cyclohexanecarboxamide] |  | 2030 | 678 |  |  |  |  | 1230 | 1440 |  |
| CC(C)Nc1cncc(-c2cc3c(-c4cc5c(N6CCCCC6)nccc5[nH]4)n[nH]c3cn2)c1 [Compound 180, N-Isopropyl-5-(3-(4-(piperidin-1-yl)-1H-pyrrolo[3,2-c]pyridin-2-yl)-1H-pyrazolo[3,4-c]pyridin-5-yl)pyridin-3-amine] |  | 3390 | 2600 |  |  |  |  | 2450 | 4160 |  |
| O=C(Nc1cncc(-c2cc3c(-c4cc5c(-c6cccc(F)c6)nccc5[nH]4)n[nH]c3cn2)c1)c1ccccc1 [Compound 11, N-(5-(3-(4-(3-Fluorophenyl)-1H-pyrrolo[3,2-c]pyridin-2-yl)-1H-pyrazolo[3,4-c]pyridin-5-yl)pyridin-3-yl)benzamide] | 26.9 | > 10000 | > 10000 | 0 |  |  |  | 3820 | > 10000 | 34.7 |
| CC(C)CC(=O)Nc1cncc(-c2cc3c(-c4cc5c(N6CCCCC6)nccc5[nH]4)n[nH]c3cn2)c1 [Compound 170, 3-Methyl-N-(5-(3-(4-(piperidin-1-yl)-1H-pyrrolo[3,2-c]pyridin-2-yl)-1H-pyrazolo[3,4-c]pyridin-5-yl)pyridin-3-yl)butanamide] |  | 1780 | 2360 |  |  |  |  | 1250 | 1500 |  |
| CC(C)CC(=O)Nc1cncc(-c2cc3c(-c4cc5c(-c6cc(F)cc(CNS(C)(=O)=O)c6)nccc5[nH]4)n[nH]c3cn2)c1 [Compound 478, N-(5-(3-(4-(3-Fluoro-5-(methylsulfonamidomethyl)phenyl)-1H-pyrrolo[3,2-c]pyridin-2-yl)-1H-pyrazolo[3,4-c]pyridin-5-yl)pyridin-3-yl)-3-methylbutanamide] | 41.3 | > 10000 | > 10000 | 29 |  |  | 38.7 | > 10000 | > 10000 | 6.3 |
| O=C(Cc1ccccc1)Nc1cncc(-c2cc3c(-c4cc5c(-c6ccccc6F)nccc5[nH]4)n[nH]c3cn2)c1 [Compound 66, N-(5-(3-(4-(2-Fluorophenyl)-1H-pyrrolo[3,2-c]pyridin-2-yl)-1H-pyrazolo[3,4-c]pyridin-5-yl)pyridin-3-yl)-2-phenylacetamide] |  | 3250 | 3310 |  |  |  |  | 2000 | 1850 |  |
